# What was measured:
# TrkB [1] = target: T1, TrkB (Mus musculus, UniProt P15209); test: Trk activation in wild-type and TrkC knockout cortical neurons: TrkB; type: cell-based, mice; settings: FIG. 22
# T1 construct: from tissue; host or cells: mouse brain
# Protocol: To further assess whether 7,8-dihydroxyflavone blocks neuronal apoptosis in a TrkB dependent manner, cortical neurons were prepared from homozygous pups of TrkC+/−mice, which were mated to the same genotype. […] Glutamate weakly stimulated both TrkA and TrkB faint phosphorylation regardless of TrkC genotype (FIG. 22, rows 1 and 3). The spontaneous caspase-3 activation in TrkC−/− neurons was suppressed by 7,8-dihydroxyflavone (FIG. 22, row 5).
# TrkA [2] = target: T2, TrkA (Homo sapiens, UniProt P04629); test: Tyrosine phosphorylation of Trk receptors in transfected HEK293 cells: TrkA; type: cell-based; settings: FIG. 15
# T2 construct: expressed in transfected cells; host or cells: HEK293
# T2 sequence (P04629 33-796, species assumed): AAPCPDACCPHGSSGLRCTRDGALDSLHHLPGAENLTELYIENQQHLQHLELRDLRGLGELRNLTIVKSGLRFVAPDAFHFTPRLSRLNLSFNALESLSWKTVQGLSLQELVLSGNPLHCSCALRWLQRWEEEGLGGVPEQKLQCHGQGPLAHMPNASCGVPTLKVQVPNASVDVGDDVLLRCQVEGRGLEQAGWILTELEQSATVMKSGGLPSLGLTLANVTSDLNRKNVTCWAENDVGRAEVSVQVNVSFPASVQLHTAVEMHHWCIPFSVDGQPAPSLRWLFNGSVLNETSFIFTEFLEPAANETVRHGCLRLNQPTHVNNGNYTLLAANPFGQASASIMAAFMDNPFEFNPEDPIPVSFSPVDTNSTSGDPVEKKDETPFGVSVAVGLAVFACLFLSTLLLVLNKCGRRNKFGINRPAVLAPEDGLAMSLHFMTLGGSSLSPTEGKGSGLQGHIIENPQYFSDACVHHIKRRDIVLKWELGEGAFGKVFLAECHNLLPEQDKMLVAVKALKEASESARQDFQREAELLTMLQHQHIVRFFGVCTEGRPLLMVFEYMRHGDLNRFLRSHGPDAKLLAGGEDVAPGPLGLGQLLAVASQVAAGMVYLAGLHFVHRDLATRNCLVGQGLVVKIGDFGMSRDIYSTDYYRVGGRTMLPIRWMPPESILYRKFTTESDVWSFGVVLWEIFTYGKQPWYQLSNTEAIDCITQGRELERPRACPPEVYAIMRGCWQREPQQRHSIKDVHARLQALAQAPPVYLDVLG
# From the text: To determine if 7,8-dihydroxyflavone promoted tyrosine phosphorylation of the other Trk receptors, HEK293 cells were transfected with various Trk receptors, followed by treatment with 7,8-dihydroxyflavone.
# TrkB [3] = target: T3, TrkB (Rattus norvegicus, UniProt Q63604); test: Immunofluorescent staining of hippocampal neurons with anti-phospho TrkB antibody; type: cell-based; set-up: endogenous in cells; host or cells: primary hippocampal neurons; settings: 1 μM, 30 minutes, FIG. 8
# T3 sequence (Q63604 32-821): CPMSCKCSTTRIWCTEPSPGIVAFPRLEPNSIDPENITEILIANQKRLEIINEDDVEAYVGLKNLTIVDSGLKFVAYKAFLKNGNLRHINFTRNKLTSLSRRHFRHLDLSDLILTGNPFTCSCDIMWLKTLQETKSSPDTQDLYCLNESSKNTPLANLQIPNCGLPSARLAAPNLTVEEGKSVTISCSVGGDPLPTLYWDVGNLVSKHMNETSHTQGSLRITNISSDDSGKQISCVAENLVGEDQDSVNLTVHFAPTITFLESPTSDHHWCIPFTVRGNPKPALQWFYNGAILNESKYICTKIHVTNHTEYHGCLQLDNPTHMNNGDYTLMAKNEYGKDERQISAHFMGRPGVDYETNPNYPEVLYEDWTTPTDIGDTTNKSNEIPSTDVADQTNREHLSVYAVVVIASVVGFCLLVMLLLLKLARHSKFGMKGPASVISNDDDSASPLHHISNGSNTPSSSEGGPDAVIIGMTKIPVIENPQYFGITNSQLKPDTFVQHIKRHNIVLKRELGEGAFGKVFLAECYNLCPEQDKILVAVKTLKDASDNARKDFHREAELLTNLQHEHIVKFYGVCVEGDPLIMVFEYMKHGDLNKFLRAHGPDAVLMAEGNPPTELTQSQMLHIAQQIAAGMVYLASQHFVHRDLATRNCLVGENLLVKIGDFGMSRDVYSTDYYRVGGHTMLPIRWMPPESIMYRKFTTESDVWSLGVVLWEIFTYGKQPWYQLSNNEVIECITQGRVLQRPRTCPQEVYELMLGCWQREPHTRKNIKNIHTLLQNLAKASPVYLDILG
# Protocol: Primary hippocampal neurons were seeded on poly-L lysine coated coverslips in a 12-well plate. After 7 days in vitro, the neurons were treated with 100 ng/ml BDNF or variety of flavone compounds (1 μM) for 30 minutes, and then washed with PBS. Cells were fixed with 3% formaldehyde in PBS at room temperature for 10 minutes. The cells were then permeabilized and blocked by 0.4% Triton X-100 and 2% FBS in PBS at room temperature for 15 minutes, washed with PBS three times and treated with anti-MAP2 (1:200) and anti-phospho-TrkB antibodies (1:500). After staining with FITC- or Rhodamine-conjugated secondary antibody, the coverslips were mounted on slides. Fluorescent images were taken by OLYMPUS IX71 fluorescence microscope (Olympus; Center Valley, Pa.).
# BDNF binding to TrkB induces its autophosphorylation and, subsequently, activation of downstream kinase pathways including MAPK and PI3/Akt. To explore whether 7,8-dihydroxyflavone triggers TrkB activation, immunofluorescent staining on hippocampal neurons with anti-phospho TrkB antibody was conducted.
# TrkB [4] = target: T3, TrkB; test: Western analysis of TrkB activation in hippocampal neurons; type: cell-based; set-up: endogenous in cells; host or cells: primary hippocampal neurons; settings: FIG. 9
# Protocol: (§1) To further examine whether 7,8-dihydroxyflavone can stimulate TrkB-mediated downstream signaling cascades, Western analysis was performed.
# To further test that the stimulatory effect of 7,8-dihydroxyflavone is mediated through TrkB, cells were either untreated or treated with K252a, a selective inhibitor of the tyrosine kinase activity of the Trk family of neutrophin receptors.
# [5] = test system: progenitor proliferation in hippocampus; test: Neurogenesis analysis in hippocampus (BrdU); type: in vivo, C57BL/6J mice; settings: 5 mg/kg daily for 21 days, compared to vehicle control, FIGS. 32 and 33
# Protocol: Adult male mice (2-3 months old) were orally injected with saline, 4′-DMA-7,8-DHF and 7,8-DHF (5 mg/kg) for 21 days. Then BrdU (50 mg/kg) was i.p. injected. In 2 hours, the mice were perfused with 4% paraformaldehyde. Immunohistochemical staining was performed on formalin-fixed paraffin-embedded sections. Sections from brain were cut, deparaffinized in xylene and rehydrated in graded alcohols. The slides were boiled in 10 mM citric acid (pH 6.0) for 10 minutes followed by an incubation in 2 N HCl for 10 minutes in room temperature. The slides were then permeabilized and blocked with 1% BSA in 0.2% PBST. The incorporated BrdU were stained using anti-BrdU-FITC (Abcam, Inc; Cambridge, Mass.) at 4° C. for 16 hours. After three washes in PBS, the cells were stained with DAPI for another 10 minutes at room temperature. The slides were mounted with AquaMount (Lerner Laboratories; Pittsburgh, Pa.) containing 0.01% 1,4-diazobicyclo(2,2,2)octane and examined under a fluorescence microscope.
# To test whether increasing TrkB activation by 4′-dimethylamino-7,8-dihydroxyflavone would elevate neurogenesis, adult male C57BL/6J mice were injected daily for 21 days with either vehicle, 7,8-DHF, or 4′-DMA-7,8-DHF (5 mg/kg). At the end of treatment (day 21), the animals were injected with BrdU (50 mg/kg, i.p.) to label the dividing cells and were sacrificed 2 hours later. […]
# TrkA [6] = target: TrkA (Mus musculus, UniProt Q3UFB7); test: TrkA phosphorylation in mouse brain after intraperitoneal injection; type: in vivo, mice; set-up: from tissue; host or cells: mouse brain; settings: 5 mg/kg intraperitoneally, 2 hours after injection, FIG. 12
# TrkA (Mus musculus, UniProt Q3UFB7), sequence (Q3UFB7 34-799): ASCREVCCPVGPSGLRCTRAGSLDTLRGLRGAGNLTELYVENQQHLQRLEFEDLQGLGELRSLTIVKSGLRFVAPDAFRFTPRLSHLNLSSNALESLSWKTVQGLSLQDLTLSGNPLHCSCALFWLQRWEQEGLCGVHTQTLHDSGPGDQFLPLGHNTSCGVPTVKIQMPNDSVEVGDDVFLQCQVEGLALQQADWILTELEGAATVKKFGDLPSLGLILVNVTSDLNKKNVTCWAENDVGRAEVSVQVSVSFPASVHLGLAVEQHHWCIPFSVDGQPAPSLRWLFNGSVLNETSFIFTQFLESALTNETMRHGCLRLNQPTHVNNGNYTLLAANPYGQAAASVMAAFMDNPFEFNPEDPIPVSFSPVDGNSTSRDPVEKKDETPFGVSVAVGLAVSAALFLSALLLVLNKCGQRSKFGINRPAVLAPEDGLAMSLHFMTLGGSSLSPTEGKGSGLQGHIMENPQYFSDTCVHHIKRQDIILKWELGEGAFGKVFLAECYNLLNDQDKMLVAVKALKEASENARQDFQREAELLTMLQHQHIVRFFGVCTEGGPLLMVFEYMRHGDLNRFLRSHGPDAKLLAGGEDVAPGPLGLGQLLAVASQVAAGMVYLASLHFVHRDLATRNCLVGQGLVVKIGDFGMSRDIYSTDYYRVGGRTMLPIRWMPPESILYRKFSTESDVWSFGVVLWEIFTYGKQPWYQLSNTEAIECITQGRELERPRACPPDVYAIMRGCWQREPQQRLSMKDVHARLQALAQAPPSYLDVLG
# Protocol: To assess whether 7,8-dihydroxyflavone can provoke TrkB activation in the brain, mice were intraperitoneally injected with a dose of 5 mg/kg and analyzed at various time points. […] Further, as shown in FIG. 12 (right panel), the protein and mRNA levels of the neurotrophic receptors were not altered after treatment with 7,8-dihydroxyflavone.
# Erk = test: Western analysis of Erk phosphorylation in hippocampal neurons; type: cell-based
# Protocol: as §1
# To probe the time course of 7,8-dihydroxyflavone triggered TrkB activation, hippocampal neurons were treated with 7,8-dihydroxyflavone at 500 nM and phosphorylation of Erk and Akt was determined over time by Western analysis. […] Stimulation of Erk and Akt by 7,8-dihydroxyflavone also occurred in a dose dependent manner.
# TrkB F616A = target: T4, TrkB F616A (Mus musculus, UniProt P15209, F616A); test: TrkB phosphorylation in cortical neurons from TrkB F616A knockin mice; type: cell-based; settings: 0.5 μM, 30 minutes, FIG. 23
# T4 construct: endogenous in cells; host or cells: cortical neurons of TrkB F616A knock-in mice
# T4 sequence (P15209 32-821 F616A): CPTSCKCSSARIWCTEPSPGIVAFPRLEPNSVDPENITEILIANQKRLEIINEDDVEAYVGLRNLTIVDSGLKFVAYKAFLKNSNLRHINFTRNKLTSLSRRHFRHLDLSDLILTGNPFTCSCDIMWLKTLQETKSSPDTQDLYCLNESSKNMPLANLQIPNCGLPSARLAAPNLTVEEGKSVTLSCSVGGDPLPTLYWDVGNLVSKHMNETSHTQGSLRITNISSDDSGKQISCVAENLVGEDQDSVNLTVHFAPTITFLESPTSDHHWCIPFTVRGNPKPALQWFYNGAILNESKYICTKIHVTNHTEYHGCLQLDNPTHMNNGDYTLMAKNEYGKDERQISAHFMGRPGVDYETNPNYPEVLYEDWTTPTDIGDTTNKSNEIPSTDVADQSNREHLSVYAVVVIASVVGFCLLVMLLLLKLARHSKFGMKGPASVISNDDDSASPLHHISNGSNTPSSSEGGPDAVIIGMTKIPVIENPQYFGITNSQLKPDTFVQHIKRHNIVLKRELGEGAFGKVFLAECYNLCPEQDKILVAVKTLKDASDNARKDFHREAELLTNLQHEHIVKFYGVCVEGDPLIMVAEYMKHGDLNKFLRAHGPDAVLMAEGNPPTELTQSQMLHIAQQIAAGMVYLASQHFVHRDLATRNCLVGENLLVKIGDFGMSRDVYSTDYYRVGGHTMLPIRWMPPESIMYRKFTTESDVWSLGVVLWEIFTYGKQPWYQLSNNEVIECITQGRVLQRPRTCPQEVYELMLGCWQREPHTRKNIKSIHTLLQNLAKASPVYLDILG
# Protocol: To explore whether the neuroprotective action of 7,8-dihydroxyflavone is dependent on TrkB activation in vivo, TrkB F616A knockin mice were used. […] To further assess whether 7,8-dihydroxyflavone can mimic BDNF, cortical neurons were prepared from TrkB F616A knockin mice. The cortical neurons were pretreated for 30 minutes with either K252a Trk tyrosine kinase inhibitor (100 nM) or 1NMPP1 inhibitor (100 nM) followed by 0.5 μM 7,8-dihydroxyflavone for 30 minutes.
# [7] = test system: ECD and ICD of TrkA receptor; test: In vitro binding assay: TrkA ECD and ICD
# T1 sequence (P15209 32-821): as the sequence (P15209 32-821 F616A) above, with A585F counted along it
compound,measurement,setting,value
"O=c1cc(-c2ccccc2)oc2c(O)c(O)ccc12 [7,8-dihydroxyflavone]",TrkB activation in wild-type and TrkC knockout neurons,TrkB [1],provoked TrkB
same,tyrosine phosphorylation of TrkA receptor,TrkA [2],not
same,TrkB tyrosine phosphorylation (immunofluorescence),TrkB [3],provoked TrkB tyrosine phosphorylation similar to BDNF
same,activation of TrkB (Western),TrkB [4],demonstrated activation of TrkB
same,survival of ischemic insult and treatment,infarct volume; 5 mg/kg intraperitoneally,All animals included in the study survived
same,infarct volumes,"infarct volume; 5 mg/kg intraperitoneally 5 minutes prior to reperfusion, TTC 24 hours after MCAO, FIG. 20",reduced infarct volumes
same,neurogenesis (BrdU),[5],increased neurogenesis
same,TrkA phosphorylation in the brain,TrkA [6],not TrkA
same,time at which Erk phosphorylation was observed,Erk; 500 nM,5 min
same,time by which Erk phosphorylation faded,Erk; 500 nM,180 min
same,Erk activation (Western),Erk; FIG. 9,activated
same,concentration at which Erk phosphorylation was observed,Erk; treatment for 30 minutes,250 nM
same,activation of TrkB F616A,TrkB F616A,selectively activates TrkB F616A
same,binding to TrkA ECD or ICD,[7],Neither the ECD nor ICD of TrkA receptor was capable of binding
